Source: publication PMC9727733, “Liposomal Binuclear Ir(III)–Cu(II) Coordination Compounds with Phosphino-Fluoroquinolone Conjugates for Human Prostate Carcinoma Treatment” (Inorganic Chemistry, 2022)

Tests used:
Type in all cases: cell-based
[1] = test system: DU-145 cell line (human prostate carcinoma); experiment: MTT cytotoxicity assay, DU145 cells
Protocol: (§1) The cytotoxicity of the four novel heteronuclear Ir^III–Cu^II complexes was assessed against four selected cancer cell lines: A549, MCF7, DU145, WM2664, and one normal HEK293T cell line in vitro (Table 3). IC50 values (concentration of a drug required to inhibit the growth of 50% of the cells) were assessed in two different approaches, i.e., after 24 or 24 + 48 h, using the 3-(4,5-dimethylthiazole)-2,5-diphenyltetrazolium bromide (MTT) method. Cancerous and noncancerous diseases have also been treated with the well-known drug cisplatin in the same concentration range as investigated complexes and are considered as a control. IC50 values have been determined from the plots of cell viability at various concentrations of each compound by matching appropriate dose–response curves and are presented in Table 3. […]
(§2) Bovine Serum (FBS). DU-145 cell line (human prostate carcinoma) and HEK293T cell line (human embryonic kidney) were cultured in minimum essential medium (MEM, Corning) with only 10% fetal bovine serum (FBS). Cultures were incubated at 37 °C under a humidified atmosphere containing 5% CO2.
(§3) Cells were passaged using a solution containing 0.05% trypsin and 0.5 mM EDTA. All media and other ingredients were purchased from ALAB, Poland.
(§4) Since most of the studied compounds are insoluble in aqueous media, therefore they needed to be pre-dissolved in DMSO for biological tests. Cytotoxicity was assessed by MTT assay performed according to the protocols described previously. (70) In brief, 1 × 10^4 cells per well, seeded in 96-well flat-bottom microtiter plate, were incubated with the tested complexes (1, 2, 3 and 4) at various concentrations for 24 h.
(§5) After that time, solutions of compounds were washed out, cells were washed thee time with PBS and fresh medium was applied. Each compound concentration was tested in five replicates and repeated at least three times. Determined values of IC50 (concentration of a drug required to inhibit the growth of 50% of the cells) are given as mean + S.D. (Standard Deviation). Furthermore, post-treatment survival assessment of the treated cells was analyzed under a fluorescence inverted microscope (Olympus IC51, Japan) with an excitation filter 470/20 nm. For this, cells were stained with two versatile fluorescence dyes: fluorescein […]
(§6) diacetate (FDA, 5 mg/mL) and propidium iodide (PI, 5 mg/mL) in standard conditions in the dark for 20 min. Before visualization dyes were removed and cells were washed with PBS twice. IC50 values were determined, after 72 h, from the plots of cell viability in the presence of various concentrations of each compound by matching dose–response curves. […]

[2] = test system: HEK293T cell line (human embryonic kidney); experiment: MTT cytotoxicity assay, HEK293T normal cells
Protocol: The cytotoxicity of the four novel heteronuclear Ir^III–Cu^II complexes was assessed against four selected cancer cell lines: A549, MCF7, DU145, WM2664, and one normal HEK293T cell line in vitro (Table 3). IC50 values (concentration of a drug required to inhibit the growth of 50% of the cells) were assessed in two different approaches, i.e., after 24 or 24 + 48 h, using the 3-(4,5-dimethylthiazole)-2,5-diphenyltetrazolium bromide (MTT) method. Cancerous and noncancerous diseases have also been treated with the well-known drug cisplatin in the same concentration range as investigated complexes and are considered as a control. IC50 values have been determined from the plots of cell viability at various concentrations of each compound by matching appropriate dose–response curves and are presented in Table 3.
as §2, with “(human skin (metastasis), morphology: epithelial, ATCC CRL-1676) were cultured in EMEM (EBSS) + 2mM Glutamine + 1% Non-Essential Amino Acids (NEAA) + 1% Sodium Pyruvate (NaP) + 10% Foetal Bovine” for “Bovine”
as §3, §4, §5, §6

[3] = test system: A549 cell line (human lung adenocarcinoma); experiment: MTT cytotoxicity assay, A549 cells; details: for IC50: MTT
Protocol: as §1
(§7) MCF7 cell line (human breast adenocarcinoma, morphology: epithelial-like, ATCC: HTB-22), A549 cell line (human lung adenocarcinoma, morphology: epithelial, ATCC: CCL-185) and HaCaT (human keratinocyte) were cultured in Dulbecco’s Modified Eagle’s Medium (DMEM, Corning) with phenol red, supplemented with 10% fetal bovine serum (FBS) and with 1% streptomycin/penicillin. WM266-4 cell line […]
as §2, with “(human skin (metastasis), morphology: epithelial, ATCC CRL-1676) were cultured in EMEM (EBSS) + 2mM Glutamine + 1% Non-Essential Amino Acids (NEAA) + 1% Sodium Pyruvate (NaP) + 10% Foetal Bovine” for “Bovine”
as §3, §4, §5, §6
(4) In brief, before imaging, A549 and Du145 cells were seeded on microscopic slides at a […]

[4] = test system: MCF7 cell line (human breast adenocarcinoma); experiment: MTT cytotoxicity assay, MCF7 cells
Protocol: as §1, §7
as §2, with “(human skin (metastasis), morphology: epithelial, ATCC CRL-1676) were cultured in EMEM (EBSS) + 2mM Glutamine + 1% Non-Essential Amino Acids (NEAA) + 1% Sodium Pyruvate (NaP) + 10% Foetal Bovine” for “Bovine”
as §3, §4, §5, §6

[5] = test system: WM2664 cells (WM266-4, human skin metastasis); experiment: MTT cytotoxicity assay, WM2664 cells
Protocol: as §1, §7
as §2, with “(human skin (metastasis), morphology: epithelial, ATCC CRL-1676) were cultured in EMEM (EBSS) + 2mM Glutamine + 1% Non-Essential Amino Acids (NEAA) + 1% Sodium Pyruvate (NaP) + 10% Foetal Bovine” for “Bovine”
as §3, §4, §5, §6

[6] = DU145, 72 h (24 + 48 h recovery)
[7] = A549, 72 h (24 + 48 h recovery)
[8] = MCF7, 72 h (24 + 48 h recovery)
[9] = WM2664, 72 h (24 + 48 h recovery)

| Compound | IC50 ([1]; DU145, 24 h treatment) | IC50 [1, 6] | IC50 ([2]; 24 h treatment) | IC50 ([2]; 72 h (24 + 48 h recovery)) | IC50 ([3]; A549, 24 h treatment) | IC50 [3, 7] | IC50 ([4]; MCF7, 24 h treatment) | IC50 [4, 8] | IC50 ([5]; WM2664, 24 h treatment) | IC50 [5, 9] | times more effective than the reference drug cisplatin ([3]; A549, IC50 comparison) | selectivity index (SI – IC50 (normal cell line)/IC50 (cancer cell line)) ([3]; A549 cell line) |
| --- | --- | --- | --- | --- | --- | --- | --- | --- | --- | --- | --- | --- |
| [Ir(η^5-Cp*)Cl2Plfx-Cu(phen)](NO3)·1.3(H2O)·1.95(CH3OH) [IrPlfxCu (3)] | 0.0142 ± 2.4e-06 µM | 126 ± 4.4 µM | 776 ± 15.7 µM | 823 ± 12.3 µM | 0.0316 ± 7.6e-06 µM | 0.36 ± 0.00022 µM | 24.2 ± 7.2 µM | > 1000 µM | 0.0101 ± 2.2e-06 µM | 229 ± 25.9 µM |  |  |
| [Ir(η^5-Cp*)Cl2Pnfx-Cu(phen)](NO3)·1.75(CH3OH)·0.75(H2O) [IrPnfxCu (2)] | 0.00108 ± 1.9e-08 µM | 123 ± 5.4 µM | 756.8 ± 5.7 µM | 857 ± 15.9 µM | 0.0112 ± 7.8e-06 µM | 0.0366 ± 2.8e-06 µM | 30 ± 0.7 µM | > 1000 µM | 0.0099 ± 3.8e-06 µM | 155 ± 3.2 µM |  |  |
| O=[N+]([O-])[O-].O=[N+]([O-])[O-].[Cu+2].c1cnc2c(c1)ccc1cccnc12 [Cu(phen)(NO3)2, reference compound] | 412 ± 10.9 µM | 659 ± 14.5 µM | 81.8 ± 8.2 µM | 42.4 ± 9.1 µM | 537 ± 13.2 µM | 721 ± 15.1 µM | 318 ± 12.2 µM | 426 ± 9.9 µM | 933 ± 13.6 µM | 1110 ± 18.5 µM |  |  |
| N.N.[Cl][Pt][Cl] [cisplatin (CDDP), cisplatin, reference compound] | 0.0683 ± 1.3e-06 µM | 65.5 ± 3.6 µM | 21 ± 1.8 µM | 10.3 ± 2.1 µM | 0.057 ± 1.3e-06 µM | 71.7 ± 3.7 µM | 51.9 ± 4.6 µM | 17.7 ± 8.6 µM | 2.6 ± 0.6 µM | 8.3 ± 0.4 µM |  |  |
| [Ir(η^5-Cp*)Cl2Psfx-Cu(phen)] [IrPsfxCu (4)] | 0.0101 ± 2.9e-06 µM | 53.6 ± 0.4 µM | 677 ± 9.2 µM | 777 ± 15.3 µM | 0.0181 ± 1.3e-06 µM | 0.6 ± 0.00029 µM | 10.5 ± 0.8 µM | > 1000 µM | 0.0062 ± 2.4e-06 µM | 212 ± 10.5 µM | more than 100 | approximately 1290 |
| [Ir(η^5-Cp*)Cl2Pcfx-Cu(phen)](NO3)·1.75(CH3OH)·0.75(H2O) [IrPcfxCu (1)] | 1.28e-06 µM | 126 ± 3.4 µM | 787 ± 11.2 µM | 887 ± 12.7 µM | 0.0355 ± 5.6e-06 µM | 0.000424 µM | 35.3 ± 6.5 µM | > 1000 µM | 0.0052 ± 4.1e-06 µM | 137 ± 2.2 µM |  |  |
